# In patent US7342137B1, “Cyclohexenone compounds from Antrodia camphorata and application thereof” (Golden Biotechnology Corporation, priority 2007, dated 2008):
# Key:
# [1] = tested on: Human low density lipoprotein (LDL); assay: In vitro antioxidant activity study (Cu2+-induced LDL oxidation, diene formation); assay type: biochemical; conditions: for Tlag: LDL oxidised with 5 μM CuSO4; for Capacity values: capacity value 1 = 2 μM Trolox; for ΔTlag: difference between Tlag and Tlag0 (H2O)
# Experimental: Human low density lipoprotein (LDL) oxidated with copper ion (Cu^2+) has been widely employed to assess antioxidant activities of samples to be assayed. Antioxidant activity of a sample is determined by the diene contents of LDL after oxidation and expressed in Trolox equivalents by using a standard curve calculated from the water-soluble vitamin E analogue Trolox standards (the antioxidant capacity value of 1 is expressed in terms of 2 μM of Trolox).
# The following solutions were prepared firstly: double distilled water (the negative control group), 5 mM sodium phosphate buffer (SPB), 1 μM and 2 μM Trolox solution (the positive control group), and 40 μg/ml 4-hydroxy-2,3-dimethoxy-6-methyl-5(3,7,11-trimethyl-dodeca-2,6,10-trienyl)-cyclohex-2-enone isolated from example 1. The concentration of LDL cholesterol (LDL-C) was determined using enzyme reaction method, which was diluted to 0.1-0.25 mg/ml with 5 mM SPB. One hundred μl of the LDL was added into each well of a 96-well quartz plate, followed by addition of the abovementioned Trolox and the isolated compound from example 1. Standardized oxidizing agent CuSO4 was supplemented to induce oxidation at a final concentration of 5 μM in each 250 μl well. The plate was read on an ELISA reader at wavelength of 232 nm at 37 °C for 12 hours. The sampling time was 15 min.
# [2] = tested on: human hepatic cancer cells, Hep 3B; assay: In vitro Lovastatin add-on study (MTT), Hep 3B; assay type: cell-based; conditions: 0.0043 μg/ml Lovastatin 72 hours, 0 μg/ml formula 2
# Experimental: (§1) The experiment was also carried out according to NCI anti-cancer drug screen in vitro model. The human hepatic cancer cells, Hep 3B and Hep G2 and MDA-MB-231 were separately cultivated in media containing fetal calf serum for 24 hours. The proliferated cells were washed once with PBS, then treated with 1× trypsin-EDTA and centrifuged at 1200 rpm for 5 minutes. The supernatant was discarded and the cell pellet was resuspended in 10 ml of fresh culture medium by gently shaking. The Hep 3B cells were treated with 0.0043 μg/ml of Lovastatin for 72 hours and Hep G2 cells were treated with 0.0017 μg/ml of Taxol for 72 hours before placing in a 96-well plate. 4-hydroxy-2,3-dimethoxy-6-methyl-5(3,7,11-trimethyl-dodeca-2,6,10-trienyl)-cyclohex-2-enone obtained from example 1 were added respectively into each of the 96 wells at the following concentrations: 0 μg/ml (the control group); 30, 10, 3, 1, 0.3, 0.1 and 0.03 μg/ml (the experiment group). The cells were incubated at 37° C. in a 5% CO2 incubator for 48 hours. MTT was added in a concentration of 2.5 mg/ml into each well in dark and reacted for 4 hours, followed by the addition of 100 μl of lysis buffer to stop the reaction. The plates were read on an ELISA reader at wavelength of 570 nm to determine the survival rates.
# [3] = tested on: human breast-cancer cells, MCF-7; assay: In vitro Taxol add-on study (MTT), MCF-7; assay type: cell-based; conditions: 0.0017 μg/ml Taxol 72 hours, 0 μg/ml formula 2
# Experimental: as §1, with “breast-cancer” for “hepatic cancer”, “MCF-7” for “Hep 3B and Hep G2”, “The” for “The Hep 3B”, “placed” for “treated with 0.0043 μg/ml of Lovastatin for 72 hours and Hep G2 cells were treated with 0.0017 μg/ml of Taxol for 72 hours before placing”, “plate after 0.0017 μg/ml Taxol was added and treated for 72 hours.” for “plate.”, “terminate” for “stop”
# [4] = tested on: human breast-cancer cells, MDA-MB-231; assay: In vitro Taxol add-on study (MTT), MDA-MB-231; assay type: cell-based; conditions: 0.0017 μg/ml Taxol 72 hours, 0 μg/ml formula 2
# Experimental: as §1, with “breast-cancer” for “hepatic cancer”, “MCF-7” for “Hep 3B and Hep G2”, “The” for “The Hep 3B”, “placed” for “treated with 0.0043 μg/ml of Lovastatin for 72 hours and Hep G2 cells were treated with 0.0017 μg/ml of Taxol for 72 hours before placing”, “plate after 0.0017 μg/ml Taxol was added and treated for 72 hours.” for “plate.”, “terminate” for “stop”
# [5] = tested on: human hepatic cancer cells, Hep G2; assay: In vitro Taxol add-on study (MTT), Hep G2; assay type: cell-based; conditions: 0.0017 μg/ml Taxol 72 hours, 0 μg/ml formula 2
# Experimental: as §1
# [6] = tested on: human prostate cancer cells, LNCaP; assay: In vitro Taxol add-on study (MTT), prostate cancer cells LNCaP; assay type: cell-based; conditions: LNCaP (0.0017 μg/ml Taxol) as printed in Table 6; 0 μg/ml formula 2
# Experimental: as §1, with “human prostate” for “human hepatic”, “cells, LNCaP” for “cells, Hep 3B”, “and DU-145” for “and Hep G2 and MDA-MB-231”, “The LNCaP cells were treated with 0.0017 μg/ml of Taxol for 72 hours and DU-145” for “The Hep 3B”, “0.0043” for “0.0043 μg/ml of Lovastatin for 72 hours and Hep G2 cells were treated with 0.0017”
# [7] = tested on: human prostate cancer cells, DU-145; assay: In vitro Taxol add-on study (MTT), prostate cancer cells DU-145; assay type: cell-based; conditions: DU-145 (0.0043 μg/ml Taxol) as printed in Table 6; 0 μg/ml formula 2
# Experimental: as §1, with “human prostate” for “human hepatic”, “cells, LNCaP” for “cells, Hep 3B”, “and DU-145” for “and Hep G2 and MDA-MB-231”, “The LNCaP cells were treated with 0.0017 μg/ml of Taxol for 72 hours and DU-145” for “The Hep 3B”, “0.0043” for “0.0043 μg/ml of Lovastatin for 72 hours and Hep G2 cells were treated with 0.0017”
structure (smiles),measurement,setting,value
Cc1c(C)c2c(c(C)c1O)CCC(C)(C(=O)O)O2 (stereo not drawn) [Trolox],Tlag,[1]; 1 μM Trolox,266 min
same,Capacity values,[1]; 1 μM Trolox,0.48
same,ΔTlag,[1]; 1 μM Trolox,81 min
same,Tlag,[1]; 2 μM Trolox,344 min
same,Capacity values,[1]; 2 μM Trolox,1.00
same,ΔTlag,[1]; 2 μM Trolox,159 min
"CC[C@H](C)C(=O)O[C@H]1C[C@@H](C)C=C2C=C[C@H](C)[C@H](CC[C@@H]3C[C@@H](O)CC(=O)O3)[C@H]21 [Lovastatin, reference compound]",Cell survival rate (%),[2],61 ± 3%
"CC(=O)O[C@H]1C(=O)[C@@]2(C)[C@H]([C@H](OC(=O)c3ccccc3)[C@]3(O)C[C@H](OC(=O)[C@H](O)[C@@H](NC(=O)c4ccccc4)c4ccccc4)C(C)=C1C3(C)C)[C@]1(OC(C)=O)CO[C@@H]1C[C@@H]2O [Taxol, reference compound]",Cell survival rate (%),[3],65 ± 1%
same,Cell survival rate (%),[4],76 ± 3%
same,Cell survival rate (%),[5],81 ± 2%
same,Cell survival rate (%),[6],56 ± 3%
same,Cell survival rate (%),[7],70 ± 2%
